The record followed here is ChEMBL document CHEMBL2440076, “New triarylpyrazoles as broad-spectrum anticancer agents: design, synthesis, and biological evaluation” (Eur J Med Chem, 2013).

Holding throughout (format): functional
Assay [1] relates to DU-145. The experiment in a line: Growth inhibition of human DU145 cells assessed as cell growth at 5X10'-6 M after 48 hrs by sulforhodamine B assay. As to conditions: DU-145, 48 h, read-out: Activity.
Assay [2] has as its system SNB-75. The experiment in a line: Growth inhibition of human SNB75 cells assessed as cell growth at 5X10'-6 M after 48 hrs by sulforhodamine B assay. The following applies: SNB-75, 48 h, read-out: Activity.
The test system of assay [3] is UACC-257. The experiment in a line: Growth inhibition of human UACC257 cells assessed as cell growth at 3X10'-7 M after 48 hrs by sulforhodamine B assay. As to conditions: UACC-257, 48 h, read-out: Activity.
Assay [4] relates to M14. The experiment in a line: Growth inhibition of human M14 cells assessed as cell growth at 3X10'-7 M after 48 hrs by sulforhodamine B assay. As to conditions: M14, 48 h, read-out: Activity.
In assay [5] the test system is SF-268. The experiment in a line: Growth inhibition of human SF268 cells assessed as cell growth at 3X10'-7 M after 48 hrs by sulforhodamine B assay. As to conditions: SF-268, 48 h, read-out: Activity.
Assay [6] concerns KM12. In words: Growth inhibition of human KM12 cells assessed as cell growth at 3X10'-7 M after 48 hrs by sulforhodamine B assay. The following applies: KM12, 48 h, read-out: Activity.
For assay [7], the system named is COLO 205. In words: Growth inhibition of human COLO205 cells assessed as cell growth at 3X10'-7 M after 48 hrs by sulforhodamine B assay. The following applies: COLO 205, 48 h, read-out: Activity.
In assay [8] the test system is NCI-H522. The experiment in a line: Growth inhibition of human NCI-H522 cells assessed as cell growth at 3X10'-7 M after 48 hrs by sulforhodamine B assay. The following applies: NCI-H522, 48 h, read-out: Activity.
Assay [9] concerns SR. The experiment in a line: Growth inhibition of human SR cells assessed as cell growth at 3X10'-7 M after 48 hrs by sulforhodamine B assay. The following applies: read-out: Activity.
Assay [10] concerns CAKI-1. The experiment in a line: Growth inhibition of human CAKI-1 cells assessed as cell growth at 3X10'-8 M after 48 hrs by sulforhodamine B assay. The following applies: CAKI-1, 48 h, read-out: Activity.
Assay [11] relates to 786-0. In words: Growth inhibition of human 786-0 cells assessed as cell growth at 3X10'-8 M after 48 hrs by sulforhodamine B assay. The following applies: 786-0, 48 h, read-out: Activity.
Assay [12] has as its system DU-145. The experiment in a line: Growth inhibition of human DU145 cells assessed as cell growth at 3X10'-5 M after 48 hrs by sulforhodamine B assay. The following applies: DU-145, 48 h, read-out: Activity.
Assay [13] relates to KM12. In words: Growth inhibition of human KM12 cells assessed as cell growth at 3X10'-8 M after 48 hrs by sulforhodamine B assay. As to conditions: KM12, 48 h, read-out: Activity.
The test system of assay [14] is HT-29. The experiment in a line: Growth inhibition of human HT-29 cells assessed as cell growth at 3X10'-8 M after 48 hrs by sulforhodamine B assay. As to conditions: HT-29, 48 h, read-out: Activity.
Assay [15] relates to NCI-H460. In words: Growth inhibition of human NCI-H460 cells assessed as cell growth at 3X10'-8 M after 48 hrs by sulforhodamine B assay. As to conditions: NCI-H460, 48 h, read-out: Activity.
Assay [16] concerns PC-3. The experiment in a line: Growth inhibition of human PC3 cells assessed as cell growth at 3X10'-5 M after 48 hrs by sulforhodamine B assay. The following applies: PC-3, 48 h, read-out: Activity.
Assay [17] relates to CAKI-1. In words: Growth inhibition of human CAKI-1 cells assessed as cell growth at 3X10'-5 M after 48 hrs by sulforhodamine B assay. As to conditions: CAKI-1, 48 h, read-out: Activity.
Assay [18] relates to A498. The experiment in a line: Growth inhibition of human A498 cells assessed as cell growth at 3X10'-5 M after 48 hrs by sulforhodamine B assay. As to conditions: A498, 48 h, read-out: Activity.
In assay [19] the test system is MDA-MB-231. The experiment in a line: Growth inhibition of human MDA-MB-231 cells assessed as cell growth at 3X10'-9 M after 48 hrs by sulforhodamine B assay. As to conditions: MDA-MB-231, 48 h, read-out: Activity.
For assay [20], the system named is OVCAR-8. The experiment in a line: Growth inhibition of human OVCAR8 cells assessed as cell growth at 3X10'-9 M after 48 hrs by sulforhodamine B assay. The following applies: OVCAR-8, 48 h, read-out: Activity.
In assay [21] the test system is SK-MEL-2. The experiment in a line: Growth inhibition of human SK-MEL-2 cells assessed as cell growth at 3X10'-5 M after 48 hrs by sulforhodamine B assay. As to conditions: SK-MEL-2, 48 h, read-out: Activity.
In assay [22] the test system is SF-539. In words: Growth inhibition of human SF539 cells assessed as cell growth at 3X10'-5 M after 48 hrs by sulforhodamine B assay. The following applies: SF-539, 48 h, read-out: Activity.
Assay [23] deals with SF-268. The experiment in a line: Growth inhibition of human SF268 cells assessed as cell growth at 3X10'-5 M after 48 hrs by sulforhodamine B assay. The following applies: SF-268, 48 h, read-out: Activity.
Assay [24] deals with HCT-15. In words: Growth inhibition of human HCT15 cells assessed as cell growth at 3X10'-5 M after 48 hrs by sulforhodamine B assay. The following applies: HCT-15, 48 h, read-out: Activity.
Assay [25] concerns NCI-H460. In words: Growth inhibition of human NCI-H460 cells assessed as cell growth at 3X10'-5 M after 48 hrs by sulforhodamine B assay. The following applies: NCI-H460, 48 h, read-out: Activity.
For assay [26], the system named is HOP-92. The experiment in a line: Growth inhibition of human HOP92 cells assessed as cell growth at 3X10'-5 M after 48 hrs by sulforhodamine B assay. The following applies: HOP-92, 48 h, read-out: Activity.
Assay [27] deals with HOP-62. In words: Growth inhibition of human HOP62 cells assessed as cell growth at 3X10'-5 M after 48 hrs by sulforhodamine B assay. As to conditions: HOP-62, 48 h, read-out: Activity.
In assay [28] the test system is MDA-MB-468. The experiment in a line: Growth inhibition of human MDA-MB-468 cells assessed as cell growth at 3X10'-6 M after 48 hrs by sulforhodamine B assay. The following applies: MDA-MB-468, 48 h, read-out: Activity.
The subject of assay [29] is U-251. The experiment in a line: Growth inhibition of human U251 cells assessed as cell growth at 3X10'-9 M after 48 hrs by sulforhodamine B assay. As to conditions: U-251, 48 h, read-out: Activity.
In assay [30] the test system is RXF 393. In words: Growth inhibition of human RXF393 cells assessed as cell growth at 3X10'-6 M after 48 hrs by sulforhodamine B assay. The following applies: RXF 393, 48 h, read-out: Activity.
In assay [31] the test system is SK-OV-3. The experiment in a line: Growth inhibition of human SKOV3 cells assessed as cell growth at 3X10'-6 M after 48 hrs by sulforhodamine B assay. As to conditions: SK-OV-3, 48 h, read-out: Activity.
The test system of assay [32] is OVCAR-3. In words: Growth inhibition of human OVCAR3 cells assessed as cell growth at 3X10'-6 M after 48 hrs by sulforhodamine B assay. The following applies: OVCAR-3, 48 h, read-out: Activity.
For assay [33], the system named is SK-MEL-5. The experiment in a line: Growth inhibition of human SK-MEL-5 cells assessed as cell growth at 3X10'-6 M after 48 hrs by sulforhodamine B assay. As to conditions: SK-MEL-5, 48 h, read-out: Activity.
The test system of assay [34] is SNB-19. In words: Growth inhibition of human SNB19 cells assessed as cell growth at 3X10'-6 M after 48 hrs by sulforhodamine B assay. The following applies: SNB-19, 48 h, read-out: Activity.
Assay [35] concerns NCI-H226. In words: Growth inhibition of human NCI-H226 cells assessed as cell growth at 3X10'-6 M after 48 hrs by sulforhodamine B assay. As to conditions: NCI-H226, 48 h, read-out: Activity.

As for `COc1cc(-c2nn(-c3cccc(NC(=O)Nc4ccc(Cl)c(Cl)c4)c3)cc2-c2ccncc2)ccc1Cl`, the growth at 5 µM in [1] was 7%.

Turning to `COc1cc(-c2nn(-c3cccc(NC(=O)Nc4cccc(C(F)(F)F)c4)c3)cc2-c2ccncc2)ccc1Cl`, the growth at 5 µM is 14% in [1] and -4% in assay [2].

For the compound `COc1cc(-c2nn(-c3cccc(NC(=O)Nc4ccc(Cl)c(C(F)(F)F)c4)c3)cc2-c2ccncc2)ccc1Cl`, the growth at 0.3 µM came out at 91% in [3]; 100% in assay [4]; 97% in assay [5]; 95% in [6]; 101% in assay [7]; 100% in assay [8]. Further, the growth at 0.3 µM in [9] amounted to 98%. Also, the growth at 0.03 µM in assay [10] came to 94%; in assay [11], 102%; in assay [13], 101%; in assay [14], 106%; in assay [15], 102%. Further, the growth at 30 µM in assay [12] was 2%; in assay [16] it was -20%; in [17] it was -20%; in assay [18] it was -25%; in assay [21], -64%; in assay [22] it was -80%. Moreover, the growth at 30 µM in [23] was -31%; in assay [24], -35%; in assay [25] it was -28%; in assay [26], -46%; in [27], -51%. Further, the results for the growth at 0.003 µM in assay [19], in assay [20] and in [29] were 89%, 105% and 97%, respectively. The growth at 3 µM was 6% in assay [28]; 20% in [30]; 21% in [31]; -14% in assay [32]; -5% in assay [33]; 19% in assay [34]. Further, the growth at 3 µM in assay [35] amounted to 38%.

Regarding `COc1cc(-c2nn(-c3cccc(NC(=O)Nc4cc(C(F)(F)F)cc(C(F)(F)F)c4)c3)cc2-c2ccncc2)ccc1Cl`, in assay [2], the growth at 5 µM is -50%.

As for `COc1cc(-c2nn(-c3cccc(NC(=O)c4cccc(C(F)(F)F)c4)c3)cc2-c2ccncc2)ccc1Cl`, the growth at 5 µM in assay [1] is 15%; in assay [2] it was -2%.

Regarding `O=C(Nc1cccc(-n2cc(-c3ccncc3)c(-c3ccc(Cl)c(O)c3)n2)c1)Nc1cc(C(F)(F)F)cc(C(F)(F)F)c1`, the growth at 5 µM in [1] is 5%; in assay [2], -46%.

Turning to `O=C(Nc1cccc(-n2cc(-c3ccncc3)c(-c3ccc(Cl)c(O)c3)n2)c1)c1ccc(N2CCOCC2)c(C(F)(F)F)c1`, the figures for the growth at 5 µM in [1] and in [2] were 46% and 20%, respectively.
